Values after ≈ are worked out from the molar mass of the structure shown. Read-outs that look alike come from different tables or passages of the source.
Experiments:
[1] = test system: CHO-K1 (chinese hamster ovary cells); experiment: Cytotoxicity assay (MTT, 5 d) on CHO-K1; assay type: cell-based; conditions: Cricetulus griseus, CHO-K1, 120 h
Method: (§1) Cytotoxicity assay: A549 (human lung carcinoma cell line; ACC 107) and CHO-K1 (chinese hamster ovary cells; ACC 110) were obtained from the German Collection of Microorganisms and Cell Cultures (DSMZ) and cultured under the conditions recommended by the depositor. Cells were propagated in Dulbeccos’s Modified Eagle’s Medium (DMEM) and Ham’s F12 medium, respectively, supplemented with 10% fetal bovine serum (FBS), and seeded at 6×10^3 cells per well of 96-well plates in 120 μL of complete medium. After 2 h of equilibration (37 °C, 5% CO2), the cells were treated with a serial dilution of cytochalasins in 60 µL growth medium. Cytochalasins, doxorubicin as reference, as well as the solvent control were tested as duplicates in two independent experiments. After 5 d of incubation (37 °C, 5% CO2), a total of 20 μL of 5 mg/ml MTT (thiazolyl blue tetrazolium bromide) in phosphate -buffered saline (PBS) were added to each well […]
(§2) and the cells were further incubated for 2 h at 37 °C before the supernatant was discarded.
(§3) Subsequently, the cells were washed with 100 μL of PBS and treated with 100 μl of 2-propanol/10 N HCl (250:1) to dissolve formazan granules. Cell viability was measured as percentage relative to the respective solvent control by measuring the absorbance at 570 nm using a microplate reader (Tecan Infinite M200Pro). GraphPad Prism (version 10.0.3, GraphPad, Boston, MA, USA) was used for sigmoidal curve fitting to determine the IC50 values.

[2] = test system: A549 (human lung carcinoma cell line); experiment: Cytotoxicity assay (MTT, 5 d) on A549; assay type: cell-based; conditions: for IC50: Homo sapiens, A549, 120 h, MTT, 5 d incubation; for Cytotoxic activity against A549 (in words): positive control doxorubicin
Method: as §1, §2, §3

in vitro [3] = assay type: in vitro ADME, mouse; conditions: for microsomal CLint: C57BL/6, mouse, microsomes; for half-life: mouse, 1 μM compound, 0.5 mg/mL pooled C57BL/6 microsomes, read-out: Mouse liver microsome t1/2
Method: Assays in liver microsomes: For metabolic stability, the compound (1 μM) was incubated with 0.5 mg/mL pooled mouse (C57BL/6) microsomes (Xenotech, Kansas City, USA), 2 mM NADPH, 10 mM MgCl2 at 37 °C for 120 min on a microplate shaker. The metabolic stability of testosterone, verapamil and ketoconazole were determined in parallel to confirm the enzymatic activity of mouse/rat liver microsomes. The incubation was stopped after defined time points by precipitation of aliquots of the incubation mixture with 2 volumes of cold internal standard solution (15 nM diphenhydramine in 10% methanol/acetonitrile). Samples were stored on ice until the end of the incubation and precipitated protein was removed by centrifugation (15 min, 4 °C, and 4,000 g). Concentration of the remaining test compound at the different time points was analyzed by HPLC-MS/MS (Vanquish Flex coupled to a TSQ Altis Plus, Thermo Fisher, Dreieich, Germany) and used to determine half-life (t1/2). […]

in vitro [4] = assay type: in vitro ADME, mouse; conditions: for half-life at 1 μM: 1 μM compound, pooled CD-1 mouse plasma, read-out: Mouse plasma t1/2
Method: Plasma stability assays: To determine stability in plasma, the compound (1 μM) was incubated with pooled CD-1 mouse plasma (Neo Biotech, Nanterre, France). Samples were taken by mixing aliquots with 4 volumes of cold internal standard solution (12.5 nM diphenhydramine in 10% methanol/acetonitrile). The plasma stability of procain, propantheline and diltiazem were determined in parallel to confirm the enzymatic activity. Samples were stored on ice until the end of the incubation and precipitated protein was removed by centrifugation (15 min, 4 °C, 4,000 g, two centrifugation steps). Concentration of the remaining test compound at the different time points was analyzed by HPLC-MS/MS (Vanquish Flex coupled to a TSQ Altis Plus, Thermo Fisher, Dreieich, Germany). […]

E. coli ΔacrB (JW0451-2) = experiment: Antibacterial activity against E. coli ΔacrB; assay type: cell-based; conditions: Escherichia coli, read-out: E. coli ΔacrB (JW0451-2) MIC
[5] = test system: Staphylococcus aureus Newman; experiment: Antibacterial activity against S. aureus Newman; assay type: cell-based; conditions: Table S22
[6] = Table S22, intrinsic clearance calculated from microsomal metabolism data
[7] = Table 1, intrinsic clearance from microsomal metabolism data

| Compound | IC50 ([1]; Table S22, 5 d incubation) | IC50 ([2]; Table S22) | microsomal CLint (in vitro [3]; [6]) | half-life (in vitro [3]; Table S22) | half-life at 1 μM (in vitro [4]; Table S22) | MIC (E. coli ΔacrB (JW0451-2)) | MIC [5] | IC50 ([1]; Table 1, 5 d incubation) | IC50 ([2]; Table 1) | Cytotoxic activity against A549 (in words) [2] | microsomal CLint (in vitro [3]; [7]) | half-life (in vitro [3]; Table 1, 120 min) | half-life at 1 μM (in vitro [4]; Table 1) | Compound remaining in mouse plasma (in vitro [4]; Table 1, at 240 min) | Compound remaining in mouse plasma (in vitro [4]; Table S22, at 4 h) |
| --- | --- | --- | --- | --- | --- | --- | --- | --- | --- | --- | --- | --- | --- | --- | --- |
| CC1CC=CC2C3OC3(C)C(C)C3C(Cc4ccccc4)NC(=O)C23C(O)C2OC2C(C)C1=O (centres unmarked) [Compound 1, deacetyl-18-desoxy-19,20-epoxycytochalasin Q] | 1.21 ± 0.31 µg/mL (≈ 2.6 µM) | 0.32 ± 0.1 µg/mL (≈ 0.687 µM) | 102 ± 13 µL/min/mg | 13.8 ± 1.8 min | > 240 min | > 64 µg/mL | > 64 µg/mL |  |  |  |  |  |  |  |  |
| CC(=O)O[C@@H]1/C=C/[C@@](C)(O)C(=O)[C@@H](C)C/C=C/[C@H]2[C@H](O)C(C)=C(C)[C@H]3[C@H](Cc4ccccc4)NC(=O)[C@@]123 [Compound 2, cytochalasin C] | 1.48 ± 1.38 µg/mL (≈ 2.92 µM) | 3.34 ± 0.92 µg/mL (≈ 6.58 µM) | 88 ± 7 µL/min/mg | 15.8 ± 1.2 min | > 240 min | > 64 µg/mL | > 64 µg/mL |  |  |  |  |  |  |  |  |
| CC(=O)OC1C2OC2C(C)(O)C(=O)C(C)CC=CC2C(O)C(C)=C(C)C3C(Cc4ccccc4)NC(=O)C213 (centres unmarked) [Compound 3, 19,20-epoxycytochalasin C] |  |  |  |  |  | > 64 µg/mL | > 64 µg/mL | 0.51 ± 0.27 µg/mL (≈ 0.974 µM) | 0.34 ± 0.13 µg/mL (≈ 0.649 µM) | comparable to the positive control | 31.6 ± 1.4 µL/min/mg | 43.9 ± 2 min | > 240 min |  |  |
| CC1=C(C)C2C(Cc3ccccc3)NC(=O)C23C(O)C2OC2C(C)(O)C(=O)C(C)CC=CC3C1O (centres unmarked) [Compound 4, deacetyl-19,20-epoxycytochalasin C] | 4.63 ± 4.23 µg/mL (≈ 9.61 µM) | 1.07 µg/mL (≈ 2.22 µM) | 26.2 ± 0.1 µL/min/mg | 53.1 ± 0.2 min | > 240 min | > 64 µg/mL | > 64 µg/mL |  |  |  |  |  |  |  |  |
| CC(=O)OC1C2OC2C(C)C(=O)C(C)CC=CC2C(O)C(C)=C(C)C3C(Cc4ccccc4)NC(=O)C213 (centres unmarked) [Compound 5, 18-desoxy-19,20-epoxycytochalasin C] |  |  |  |  |  | > 64 µg/mL | > 64 µg/mL | 9.88 ± 7.69 µg/mL (≈ 19.5 µM) | 0.87 ± 1.38 µg/mL (≈ 1.71 µM) | comparable to the positive control | 132 ± 38 µL/min/mg | 11 ± 3 min | > 240 min | 74 ± 5% | >240 (74 ± 5% at 4 h) |
| CC(=O)OC1C2OC2C(C)(O)C(=O)C(C)CC=CC2C3OC3(C)C(C)C3C(Cc4ccccc4)NC(=O)C213 (centres unmarked) [Compound 6, 19,20-epoxycytochalasin Q] | 0.72 ± 0.3 µg/mL (≈ 1.38 µM) | 0.14 ± 0.02 µg/mL (≈ 0.267 µM) | 97 ± 24 µL/min/mg | 15 ± 4 min | > 240 min | > 64 µg/mL | > 64 µg/mL |  |  |  |  |  |  |  |  |
| CC1CC=CC2C3OC3(C)C(C)C3C(Cc4ccccc4)NC(=O)C23C(O)C2OC2C(C)(O)C1=O (centres unmarked) [Compound 7, deacetyl-19,20-epoxycytochalasin Q] | 3.78 ± 0.3 µg/mL (≈ 7.85 µM) | 2.56 ± 0.94 µg/mL (≈ 5.32 µM) | 14 ± 3 µL/min/mg | 102 ± 24 min | > 240 min | > 64 µg/mL | > 64 µg/mL |  |  |  |  |  |  |  |  |
| CC(=O)OC1C2OC2C(C)(O)C(=O)C(C)CC2OC2C2C3OC3(C)C(C)C3C(Cc4ccccc4)NC(=O)C132 (centres unmarked) [Compound 8, 19,20-epoxycytochalasin R] | 17.3 ± 8.94 µg/mL (≈ 32 µM) | > 37 µg/mL | 37 ± 4 µL/min/mg | 38 ± 4 min | > 240 min | > 64 µg/mL | > 64 µg/mL |  |  |  |  |  |  |  |  |
| C=C1C(C)C2C(Cc3ccccc3)NC(=O)C23C(C=CCC(C)C(=O)C(C)(O)C2OC2C3OC(C)=O)C1O (centres unmarked) [Compound 9, 19,20-epoxycytochalasin D] |  |  |  |  |  | > 64 µg/mL | > 64 µg/mL | 10.3 ± 5.07 µg/mL (≈ 19.8 µM) |  |  | 35 ± 3 µL/min/mg | 40 ± 3.7 min | > 240 min |  |  |
| CC(=O)OC1C2OC2C(C)(O)C(=O)C(C)CC=CC2C(O)C(C)=C(C)C3C(Cc4cccc(Cl)c4)NC(=O)C213 (centres unmarked) [Compound 11, m-chloro-19,20-epoxycytochalasin C] |  |  |  | 26.4 ± 1.2 min |  | > 64 µg/mL | > 64 µg/mL | 0.67 ± 0.53 µg/mL (≈ 1.2 µM) | 0.04 µg/mL (≈ 0.0717 µM) | lower nanomolar activities | 52.7 ± 2.5 µL/min/mg |  | > 240 min |  |  |
| CC1=C(C)C2C(Cc3cccc(Cl)c3)NC(=O)C23C(O)C2OC2C(C)(O)C(=O)C(C)CC=CC3C1O (centres unmarked) [Compound 12, m-chloro-deacetyl-19,20-epoxycytochalasin C] | 2.02 ± 1.2 µg/mL (≈ 3.91 µM) | > 37 µg/mL | 39 ± 12 µL/min/mg | 36 ± 10 min | > 240 min | > 64 µg/mL | > 64 µg/mL |  |  |  |  |  |  |  |  |
| CC(=O)O[C@@H]1/C=C/[C@@](C)(O)C(=O)[C@@H](C)C/C=C/[C@H]2[C@@H]3O[C@]3(C)[C@@H](C)[C@H]3[C@H](Cc4cccc(Cl)c4)NC(=O)[C@@]312 [Compound 13, m-chloro-cytochalasin Q] | 0.41 ± 0.06 µg/mL (≈ 0.756 µM) | 0.14 ± 0.02 µg/mL (≈ 0.258 µM) | 95 ± 15 µL/min/mg | 15 ± 3 min | > 240 min | > 64 µg/mL | > 64 µg/mL |  |  |  |  |  |  |  |  |
| CC(=O)OC1C2OC2C(C)(O)C(=O)C(C)CC=CC2C3OC3(C)C(C)C3C(Cc4cccc(Cl)c4)NC(=O)C213 (centres unmarked) [Compound 14, m-chloro-19,20-epoxycytochalasin Q] | 0.69 ± 0.07 µg/mL (≈ 1.24 µM) | 0.11 ± 0.05 µg/mL (≈ 0.197 µM) | 45.7 ± 1.6 µL/min/mg | 30.4 ± 1.1 min | > 240 min | > 64 µg/mL | > 64 µg/mL |  |  |  |  |  |  |  |  |
| CC1CC=CC2C3OC3(C)C(C)C3C(Cc4cccc(Cl)c4)NC(=O)C23C(O)C2OC2C(C)(O)C1=O (centres unmarked) [Compound 15, m-chloro-deacetyl-19,20-epoxycytochalasin Q] |  | 0.08 ± 0.03 µg/mL (≈ 0.155 µM) |  |  |  | > 64 µg/mL | > 64 µg/mL | 0.81 ± 0.1 µg/mL (≈ 1.57 µM) | 0.04 ± 0.03 µg/mL (≈ 0.0775 µM) | lower nanomolar activities | 39 ± 3 µL/min/mg | 36 ± 3 min | > 240 min |  |  |
| CC(=O)OC1C2OC2C(C)C(=O)C(C)CC=CC2C3OC3(C)C(C)C3C(Cc4cccc(Cl)c4)NC(=O)C213 (centres unmarked) [Compound 16, m-chloro-18-desoxy-19,20-epoxycytochalasin Q] | 3.13 ± 2.94 µg/mL (≈ 5.77 µM) | 1.02 ± 0.13 µg/mL (≈ 1.88 µM) |  |  |  | > 64 µg/mL | > 64 µg/mL | 0.41 ± 0.1 µg/mL (≈ 0.756 µM) | 0.08 ± 0.02 µg/mL (≈ 0.148 µM) |  | 984 ± 105 µL/min/mg | 1.4 ± 0.1 min | > 240 min |  |  |
| CC1=C(C)C2C(Cc3cccc(Br)c3)NC(=O)C23C(O)C2OC2C(C)(O)C(=O)C(C)CC=CC3C1O (centres unmarked) [Compound 17, m-bromo-deacetyl-19,20-epoxycytochalasin C] |  | 0.19 ± 0.02 µg/mL (≈ 0.339 µM) |  |  |  | > 64 µg/mL | > 64 µg/mL | 0.49 ± 0.12 µg/mL (≈ 0.874 µM) | 0.14 ± 0.02 µg/mL (≈ 0.25 µM) | lower nanomolar activities | 43 ± 4 µL/min/mg | 32 ± 3 min | > 240 min |  |  |
| CC(=O)OC1C2OC2C(C)(O)C(=O)C(C)CC=CC2C3OC3(C)C(C)C3C(Cc4cccc(Br)c4)NC(=O)C213 (centres unmarked) [Compound 18, m-bromo-19,20-epoxycytochalasin Q] |  | 0.31 ± 0.01 µg/mL (≈ 0.515 µM) |  |  |  | > 64 µg/mL | > 64 µg/mL | 0.94 ± 0.21 µg/mL (≈ 1.56 µM) | 0.19 ± 0.01 µg/mL (≈ 0.315 µM) |  | 77 ± 19 µL/min/mg | 19 ± 4 min | > 240 min |  |  |
| COc1cccc2c1C(=O)c1c(O)c3c(c(O)c1C2=O)C[C@@](O)(C(=O)CO)C[C@@H]3O[C@H]1C[C@H](N)[C@H](O)[C@H](C)O1 [doxorubicin, reference compound] |  |  |  |  |  |  |  |  | 0.3 µg/mL (≈ 0.552 µM) |  |  |  |  |  |  |
